Patent US8686028B2, “Substituted benzfurochromenes and related compounds for the prevention and treatment of bone related disorders” (Council of Scientific & Industrial Research, priority 2008, dated 2014)
“Also recorded” adds a separate entry of the source.

What was measured:
[1] = test system: Calvarial osteoblasts; assay: Alkaline phosphatase (ALP) activity for osteoblast differentiation, calvarial osteoblasts; format: cell-based, rat; settings: calvarial osteoblasts, 48 h
Description: (§1) Neonatal rat calvarial cell cultures are prepared as described previously (Endocrinology 145:3451) using slight modification. Briefly, for primary osteoblast cell cultures, frontal and parietal bones from Sprague-Dawley rat neonates (1-3 day old) are digested in 0.1% collagenase/0.1% dispase in α-MEM to obtain 5 sequential digests. The second through fifth digests are combined and grown to confluence at 37° C. and 5% CO2 in air in α-MEM, supplemented with 10% fetal bovine serum (FBS), 2 mM glutamine, 100 U/ml penicillin-streptomycin, Non-essential amino acid solution and sodium pyruvate.
70 to 80% confluent Calvarial osteoblasts were treated with μM S006-1709 for 48 h in the presence of ascorbate and glycerophosphate. At the end of incubation period, total ALP activity was measured with a method using p-nitrophenylphosphate (PNPP) as substrate. The reaction mixture contained diethanolamine buffer (1 mol/L, pH 9.8), 0.5 mmol/L MgCl2.6H2O, and 10 mmol/L PNPP. ALP activity was measured by taking OD of the amount of colored product formed by the dephosphorylation of PNPP at 405 nm. […] In addition, the effect of S006-1709 on mineralization of calvarial osteoblasts was studied.
We then studied its effect in osteoblast differentiation in both calvarial and bone marrow osteoblasts. Confluent calvarial osteoblasts (70 to 80%) were treated with S006-1710 for 48 h in the presence of ascorbate and glycerophosphate at concentrations ranging from 10^−16M to 10^−6M. At the end of incubation period, total ALP activity was measured with the same method used previously using p-nitrophenylphosphate (PNPP) as substrate.
70 to 80% confluent Calvarial osteoblasts were treated with S007-1351 for 48 h in the presence of ascorbate and glycerophosphate. At the end of incubation period, total ALP activity was measured with a method using p-nitrophenylphosphate (PNPP) as substrate. The reaction mixture contained diethanolamine buffer (1 mol/L, pH 9.8), 0.5 mmol/L MgCl2.6H2O, and 10 mmol/L PNPP. ALP activity was measured by taking OD of the amount of colored product formed by the dephosphorylation of PNPP at 405 nm.
70 to 80% confluent calvarial osteoblasts were treated with S007-1352 for 48 h in the presence of ascorbate and glycerophosphate at concentrations ranging from 10^−12M to 10^−6 M. At the end of incubation period, total ALP activity was measured with the same method used previously using p-nitrophenylphosphate (PNPP) as substrate.

[2] = test system: Calvarial osteoblast cells; assay: MTT cell proliferation assay; format: cell-based, rat; settings: 10^−10 M to 10^−6M, 24 hrs
Description: as §1
MTT [3-(4,5-dimethylthiazol-2-yl)-2,5-diphenyltetrazolium bromide] assay, first described by Mosmann in 1983, is based on the ability of a mitochondrial dehydrogenase enzyme from viable cells to cleave the tetrazolium rings of the pale yellow MTT and form a dark blue formazan crystals which is largely impermeable to cell membranes, thus resulting in its accumulation within healthy cells. Solubilisation of the cells by the addition of a detergent results in the liberation of the crystals which are solubilized. The number of surviving cells is directly proportional to the level of the formazan product created. The color can then be quantified using a simple colorimetric assay. The results can be read on a multiwell scanning spectrophotometer (Mosmann T. Rapid colorimetric assay for cellular growth and survival: application to proliferation and cytotoxicity assays. J Immunol Methods. 1983 Dec. 16; 65(1-2):55-63).
Calvarial osteoblast cells plated at a density of 2.0×10^3 cells/200 ul in 96 wells plates. Cells were grown to 60% confluency and then treated with following compounds S006-1709, S006-1710, 5006-1711, S006-1713 and; S006-1714 at concentrations ranging from 10^−10 M to 10^−6M for 24 hrs. After treatment media was removed and 10 mM MTT was added solution in phenol red free DMEM media. After an incubation of 4 hrs the MTT solution was removed. Blue colored crystals were formed which were dissolved in DMSO and absorbance was read on ELISA plate reader at 570 nm wavelength.

[3] = test system: bone marrow osteoblasts; assay: Mineralization of bone marrow osteoblasts (Alizarin red extraction); format: cell-based; settings: 10^−12M and 10^−10 M, 18 d bone marrow culture
From the text: In addition, the effect of S006-1709 on mineralization of bone marrow osteoblasts was also studied.
In addition, the effect of S006-1710 on mineralization of bone marrow osteoblasts was also studied.

[4] = test system: Calvarial osteoblasts; assay: Mineralization of calvarial osteoblasts (Alizarin red extraction); format: cell-based, rat; settings: 10^−12 M and 10^−10 M
[5] = test system: ovariectomized immature female rats; assay: Estrogenicity, uterine fresh weight in ovariectomized immature female rats; format: in vivo, rat; settings: 10 mg/Kg oral
Description: (§2) 21 day old immature female rats (25-30 grams) were ovariectomized and given 7 days post-operative rest. Thereafter they were treated orally with the test agent (10 mg/Kg body weight) or with vehicle or Ethynyl estradiol, the reference standard for three consecutive days. For anti-estrogenicity, other than the test chemical, ethynyl estradiol (0.01 mg/kg) was given at 15 minutes interval before the test chemical. Autopsy was done 24 h after last treatment and uterine fresh weight was taken.

[6] = test system: ovariectomized immature female rats; assay: Anti-estrogenicity, uterine fresh weight with ethynyl estradiol co-treatment; format: in vivo, rat; settings: 10 mg/Kg oral plus ethynyl estradiol 0.01 mg/kg
Description: as §2

[7] = test system: 3T3-L1 cells; assay: Anti-adipogenic effect (Oil Red O) in 3T3-L1 cells; format: cell-based, mouse
Description: The best characterized model of adipogenesis in vitro is the 3T3-L1 cell line, a substrain of Swiss 3T3 mouse cell line. 3T3-L1 cells propagated under normal conditions have a fibroblastic phenotype. However, when treated with a combination of dexamethasone, isobutylmethylxanthine (IBMX or MIX) and insulin, 3T3-L1 cells adopt a rounded phenotype and within 5 days begin to accumulate lipids intracellularly in the form of lipid droplets.
3T3-L1 cells were plated in 48-well plates 40,000 cells/well. The cells were incubated in DMEM containing fetal calf serum for 2 days until the cells become confluent. The cells were then incubated with Adipogenesis initiation media which contains DMEM with 10% FCS, IBMX and dexamethasone for 48 hrs at 37° C., 5% CO2. After two days the media was replaced with Adipogenesis Progression media which contains DMEM/10% FCS and insulin for 48 hrs at 37° C., 5% CO2, Media was again changed gently to Adipogenesis maintenance media for 48 hrs at 37° C., 5% CO2. At the end of eight days of experiment the cells were fixed and then stained with Oil Red O which stains lipid droplets. The dye was extracted and extracted dye was transferred to a 96-well plate and absorbance of extracted Oil Red O was measured in a plate reader at 490 nm.
Compounds S006-1709, S007-1351-53, S007-1495 and S007-1500 were tested in vitro in 3T3L1 cell line at two concentrations 10^−10 M and 10^−12M. FIG. 8A depicts the adipocytes formed at the end of the 8 day experiment. The fixed cells were stained with Oil Red O. The dye was then extracted and quantified.

[8] = test system: Immature 21 d old female SD rat; assay: In vivo efficacy, BMD in immature female SD rats; settings: for BMD % increase versus vehicle control, FEMUR Global / BMD % increase versus vehicle control, FEMUR Mid-shaft / BMD % increase versus vehicle control, FEMUR Neck / BMD % increase versus vehicle control, LUMBER VERTEBRAE Global / BMD % increase versus vehicle control, LUMBER VERTEBRAE L-1 / BMD % increase versus vehicle control, LUMBER VERTEBRAE L-2 / BMD % increase versus vehicle control, LUMBER VERTEBRAE L-3 / BMD % increase versus vehicle control, LUMBER VERTEBRAE L-4 / BMD % increase versus vehicle control, TIBIA Global / BMD % increase versus vehicle control, TIBIA Proximal / BMD % increase versus vehicle control, TIBIA TFSP: one month
Description: Immature 21 d old female SD rat model was chosen, animals were randomized into four groups and treated with a daily dose of test agent or vehicle for one month and autopsied on day 31.
[…], the animals were shifted to metabolic cage for acclaimatization for 24 h with food and water. Post acclaimatization animals were further left in metabolic cage for 24 h with water but no food. Blood and urine samples were collected after 24 h. Various biochemical parameters like serum calcium, serum phosphorus, serum osteocalcin, serum alkaline phosphatase (ALP) were evaluated. The animals were autopsied on day 31 and lumbar vertebrae, femur and tibia bones were isolated, cleaned and fixed in 70% ethanol in saline and stored at 4° C. until BMD measurement. Initial and final body weight and uterine weight at autopsy were recorded. BMD measurements of region of interest (lumbar: global, L1-L4; femur: global, neck and mid-shaft; tibia: global, proximal and tibio-fibula junction point) was performed using a bone densitometer (Model 4500 Elite, Hologic) fitted with commercially available software (QDR 4500 ACCLAIM series) for a fan-beam DXA system that permits determination of bone densitometry and measurement of body composition in small animals in vivo.

[9] = 3T3L1, both concentrations (10^−10 M and 10^−12M)

In the case of COc1ccccc1-c1coc2cc(O)ccc2c1=O [Compound S006-1710, 7-Hydroxy-3-(2-methoxy-phenyl)-chromen-4-one], the “osteoblast ALP activity vs vehicle control” value ([1]; 10^−16M to 10^−6M) is reported as “significant increase”, the “effect on osteoblast proliferation (MTT)” value [2] is reported as “no osteoblast proliferating action” and the “mineralization of bone marrow osteoblasts (nascent calcium deposition, Alizarin red)” value [3] is reported as “stimulate mineralization; also recorded: significant increase”. For the same compound, the “mineralization of calvarial osteoblasts (nascent calcium deposition, Alizarin red)” value [4] was “stimulate mineralization”, the “estrogenicity (in words)” value [5] was “estrogenic” and the “Estrogenic Activity, % (second line of cell)” value ([5]; relative to vehicle) was 446%. The “Estrogenic Activity (uterine fresh weight)” value ([5]; three consecutive days, vehicle 16.46) was 89.96, the “Anti-Estrogenic Activity (uterine fresh weight)” value [6] was 79.9 and the “anti-estrogenicity (in words)” value [6] was “not found to be anti-estrogenic”. The “Anti-Estrogenic Activity, % (second line of cell)” value ([6]; relative to ethynyl estradiol) was 19%.
In the case of O=c1c(-c2ccccc2O)coc2c(O)c(O)ccc12 [Compound S007-1351, 7,8-Dihydroxy-3-(2-hydroxy-phenyl)-chromen-4-one], the “osteoblast ALP activity vs vehicle control” value ([1]; 10^−12M to 10^−6M) is reported as “significant increase”, the melting point is reported as 240 to 242 °C and the effect on adipogenesis [7, 9] is reported as “inducers of adipogenesis”.
With COc1ccccc1-c1coc2c(O)c(O)ccc2c1=O [Compound S007-1352, 7,8-Dihydroxy-3-(2-methoxy-phenyl)-chromen-4-one] the “osteoblast ALP activity vs vehicle control” value ([1]; 10^−12M to 10^−6M) was “significant increase”, the melting point was 220 to 222 °C and the effect on adipogenesis [7, 9] was “inducers of adipogenesis”.
For C=CCOc1ccc2c(c1C)OCC1c3ccccc3OC21 (stereo not shown) [Compound S007-1500, 3-Allyloxy-4-methyl-6a,11a-dihydro-6H-benzo[4,5]furo[3,2-c]chromene], the “osteoblast ALP activity vs vehicle control” value ([1]; 10^−12M to 10^−6M) was “stimulated ALP activity”, the “osteoblast ALP activity vs vehicle control” value ([1]; 10^−12M to 10^−6M, listed as S-007-1500) was “showed stimulation in ALP activity” and the “BMD % increase versus vehicle control, FEMUR Global” value ([8]; 1 mg/kg daily) was “+27%”. The “BMD % increase versus vehicle control, FEMUR Mid-shaft” value ([8]; 1 mg/kg daily) was “+35%”, the “BMD % increase versus vehicle control, FEMUR Neck” value ([8]; 1 mg/kg daily) was “+16%” and the “BMD % increase versus vehicle control, LUMBER VERTEBRAE Global” value ([8]; 1 mg/kg daily) was “+13%”. For the same compound, the “BMD % increase versus vehicle control, LUMBER VERTEBRAE L-1” value ([8]; 1 mg/kg daily) was “+6%”, the “BMD % increase versus vehicle control, LUMBER VERTEBRAE L-2” value ([8]; 1 mg/kg daily) was “+21%” and the “BMD % increase versus vehicle control, LUMBER VERTEBRAE L-3” value ([8]; 1 mg/kg daily) was “+5.5%”. The “BMD % increase versus vehicle control, LUMBER VERTEBRAE L-4” value ([8]; 1 mg/kg daily) was −8.5%, the “BMD % increase versus vehicle control, TIBIA Global” value ([8]; 1 mg/kg daily) was “+35%” and the “BMD % increase versus vehicle control, TIBIA Proximal” value ([8]; 1 mg/kg daily) was “+16.5%”. The “BMD % increase versus vehicle control, TIBIA TFSP” value ([8]; 1 mg/kg daily) was “+70%”, the “BMD % increase versus vehicle control, FEMUR Global” value ([8]; 5 mg/kg daily) was “+25%” and the “BMD % increase versus vehicle control, FEMUR Mid-shaft” value ([8]; 5 mg/kg daily) was “+30%”. For the same compound, the “BMD % increase versus vehicle control, FEMUR Neck” value ([8]; 5 mg/kg daily) was “+26%”, the “BMD % increase versus vehicle control, LUMBER VERTEBRAE Global” value ([8]; 5 mg/kg daily) was “+17%” and the “BMD % increase versus vehicle control, LUMBER VERTEBRAE L-1” value ([8]; 5 mg/kg daily) was “+7%”. For the same compound, the “BMD % increase versus vehicle control, LUMBER VERTEBRAE L-2” value ([8]; 5 mg/kg daily) was “+14.5%”, the “BMD % increase versus vehicle control, LUMBER VERTEBRAE L-3” value ([8]; 5 mg/kg daily) was “+25%” and the “BMD % increase versus vehicle control, LUMBER VERTEBRAE L-4” value ([8]; 5 mg/kg daily) was “+14%”. The “BMD % increase versus vehicle control, TIBIA Global” value ([8]; 5 mg/kg daily) was “+37%”, the “BMD % increase versus vehicle control, TIBIA Proximal” value ([8]; 5 mg/kg daily) was “+33%” and the “BMD % increase versus vehicle control, TIBIA TFSP” value ([8]; 5 mg/kg daily) was “+69%”. The “BMD in Femur and Tibia (in words)” value ([8]; both doses of 1.0 and 5.0 mg/kg) was “significant increase”, the “estrogenicity (in words)” value [5] was “devoid of any estrogenicity” and the effect on adipogenesis ([7]; 3T3L1, at different concentrations (10^−10 M and 10^−12M tested)) was “significantly inhibited adipogenesis”.
